# Assay results published in patent US5849326A, “Method for treating neuronal diseases via administration of 2-acylaminopropanol derivatives” (Seikagaku Corporation, priority 1993, dated 1998).
# “And” between values parts separate entries of the source, which are not always exact repeats. Equal values may be shown once.
# What was measured:
# GD3 synthase = assay: Enzyme activity in treated cerebral cortex culture: GD3 synthase; type: cell-based, rat; conditions: culture treated with 15 μM for 40 hours; 2400 min, 15 µM
# Method: (§1) After the mixture was cultured for 40 hours, the resulting culture was harvested and pulverized in a homogenized buffer (50 mM Hepes, 0.32M sucrose) by using a chip type sonicator to prepare an enzyme source.
# GM3 as an acceptor substrate was reacted with 30 mM CMP-^14 C sialic acid (2.88×10^6 cpm) as a donor substrate. After the mixture containing a reaction product was developed by a reverse phase thin layer plate, a portion corresponding to the reaction product was scratched off, and its radioactivity was counted.
# [1] = test system: LacCer (lactosylceramide) synthase; assay: Enzyme activity in treated cerebral cortex culture: LacCer synthase; type: cell-based, rat; conditions: culture treated with 15 μM for 40 hours
# Method: as §1
# GlcCer as an acceptor substrate was reacted with 0.315mM UDP (uridine diphosphate)-^3 H galactose (2.7×10^8 cpm) as a donor substrate. After the mixture containing ^3 H-LacCer which was a reaction product was developed by a silica gel thin layer plate, a portion corresponding to the reaction product was scratched off, and its radioactivity was counted.
# [2] = test system: acyl-CoA: sphingosine N-acyltransferase; assay: Enzyme activity in treated cerebral cortex culture: acyl-CoA: sphingosine N-acyltransferase; type: cell-based, rat; set-up: key: *: No accelerating activity; conditions: culture treated with 15 μM for 40 hours
# Method: as §1
# 0.25 mM sphingosine and 0.45 mM ^14 C palmitoyl CoA (8.3×10^5cpm) were reacted in the presence of ATP (adenosine 5'-triphosphate). After ceramide which was a reaction product was subjected to solvent extraction, the extract was concentrated and evaporated to dryness, and its radioactivity was counted.
# B16 melanoma cells = assay: Glycolipid biosynthesis (3H-galactose incorporation into GSL); type: cell-based; conditions: culture for 24 hours
# Method: B16 melanoma cells derived from neuroectoderm were charged into a culture plate with 12 wells in an amount of 1×10^5 cells/well and cultured for 24 hours in a Dulbecco modified Eagle's medium containing 10% bovine fetal serum. […] After 24 hours, the medium was removed, the cells were washed with 1 ml of a phosphate buffer containing 0.1% EDTA, 1 ml of 0.25% trypsin was added, and the mixture was left to stand at 37° C. for 5 minutes. […] 4 ml of methanol and chloroform were added successively to the mass of the cells to extract all GSL, followed by evaporation to dryness. The residue was subjected to alkali hydrolysis with chloroform:methanol (1:1) containing 0.2N sodium hydroxide, neutralized with acetic acid and then evaporated to dryness. The product evaporated to dryness was dissolved in water and then desalted with a Sep-Pak C18 cartridge (Waters). The adsorbed GSL was dissolved out by 1 ml of methanol and 4 ml of chloroform:methanol (1:1) and then evaporated to dryness under a nitrogen stream. […] Thereafter, the positions of glucosylceramide, lactosylceramide and ganglioside GM3 were confirmed by iodine coloration, they were scratched off from TLC, respectively, and radioactivities thereof were measured by a liquid scintillation counter.
# ICR mice = assay: General toxicity, continuous 10-day intraperitoneal administration; type: in vivo; conditions: 100 mg/kg/day intraperitoneally for 10 days
# GSL = conditions: J. Cell. Physiol., vol. 141, pp. 573-583 (1989); cited from earlier work
# GM3 synthase = assay: Enzyme activity in treated cerebral cortex culture: GM3 synthase; type: cell-based, rat; conditions: culture treated with 15 μM for 40 hours
# Method: as §1
# After the mixture containing a reaction product was developed by a reverse phase thin layer plate, a portion corresponding to the reaction product was scratched off, and its radioactivity was counted.
# [3] = test system: cerebral cortexes of rat fetuses (explants); assay: Explant culture of cerebral cortexes, neurocytes having neurites
# Source text: The effect of neurite extension by administering the medicine after the culture was judged by measuring the number of neurocytes having neurites existing in the explants (the cultured tissues).
# [4] = test system: rat cerebral cortex neurocytes; assay: Synapse formation measured as frequency of intracellular Ca2+ fluctuation; type: cell-based
# Source text: Further, as a method of measuring synapse formation relatively simply and easily, there has been developed a multipoint observation system of Ca^2+ in neurocytes using Fura-2, and it has been confirmed that the number of synapse formation is in direct proportion to frequency of intracellular Ca^2+ fluctuation in synchronization therewith (Br. J. Pharmacol., 89, 191-198, 1986; Neurosci. Lett., 78, 69-74, 1987). We investigated influences of L-threo-FDMP and D-threo-PDMP exerted on synapse formation between rat cerebral cortex neurocytes by using this method, and the results are shown below.
# [5] = test system: primary cultured rat cerebral neurocytes (hippocampal neurons); assay: Neurite extension of primary cultured hippocampal neurocytes
# Method: Hippocampi of rat brains at the 0th day after birth were extracted aseptically, subjected to enzyme treatment with papain in the same manner as in Example 1 and then washed with a DF medium. […] After culture for 24 hours, the neurocytes were fixed by paraformaldehyde, and a degree of neurite extension was recorded by microphotographs and then observed.
# [6] = test system: rat cerebral ischemia models; assay: Antidementia effect in rat cerebral ischemia models (Example 10); type: in vivo; conditions: 2×40 mg/kg/day intraperitoneally for 6 days from 24 hours after ischemia; retention trial 12 hours after final administration; 8 rats
# Method: After 12 hours from the final administration, retention trial was carried out.
# [7] = test system: serine palmitoyltransferase; assay: Enzyme activity in treated cerebral cortex culture: serine palmitoyltransferase; type: cell-based, rat; conditions: culture treated with 15 μM for 40 hours
# Method: as §1
# 1.5 mM palmitoyl CoA (coenzyme A) and 0.1 mM ^14 C serine (8.3×10^5 cpm) were reacted in the presence of 0.5 mM pyridoxalphosphoric acid. After 3-keto-sphingosine which was a reaction product was extracted, the extract was concentrated and evaporated to dryness, and its radioactivity was counted.
# [8] = test system: primary cultured rat cerebral neurocytes; assay: Ganglioside content (ganglioside-binding sialic acid) of primary cultured neurocytes; type: cell-based; conditions: Rattus norvegicus, 72 h, culture for 3 days, control defined as 100%
# Method: Rat fetuses at the 18th day of pregnancy were taken out, and forebrain base portions of the fetuses were extracted aseptically and cut into small pieces by scissors. After the pieces were treated with papain (in a phosphate buffer containing 0.02% L-cysteine containing 180 U papain, 0.02% bovine serum albumin and 0.5% glucose, pH 7.4, at 37° C. for 30 minutes), they were washed with a mixed solution (DF medium) of 1:1 of a Dulbecco modified Eagle's medium and a Ham's F12 medium and suspended in a DF medium containing 5% bovine fetal serum and 5% equine serum. This neurocyte suspension was charged into a culture plate with 24 wells (Falcon, Primaria) in an amount of 1×10^6 cells/well. […] After completion of the culture, the cells in the respective wells were washed with a phosphate buffer and recovered by rubber policeman. Further, a ganglioside fraction was extracted by adding chloroform/methanol/water (1:2:0.8) and shaking the mixture for 5 minutes. […] The no addition group (control) which was defined as 100% was compared with the test groups, and the results are shown in Table 1.
# explants = assay: Neurite-extending activity in explants (Example 6); type: cell-based; conditions: cultured for 40 hours, FIG. 5
# Method: 1.6×10^5 cells/well of explants were sowed in a plate with 24 wells containing a DMEM medium. […] After the mixture was cultured for 40 hours, the resulting culture was fixed and then dyed with Coomassie, and nervous fibers extended to have a length which was longer than a diameter of […] were counted.
structure (smiles),measurement,setting,value
"CCCCCCCCCC(=O)N[C@@H](CN1CCOCC1)[C@@H](O)c1ccccc1 [L-threo-PDMP, 1-phenyl-2-decanoylamino-3-morpholino-1-propanol]",Accelerating activity when enzyme activity of control is defined as 100%: GD3 synthase,GD3 synthase,300% and 302.5%
same,Accelerating activity when enzyme activity of control is defined as 100%: LacCer synthase,[1],243.3%
same,Accelerating activity when enzyme activity of control is defined as 100%: Acyl-CoA: sphigosine N-acyltransferase,[2],*
same,concentration at which a pharmaceutical effect has been observed,B16 melanoma cells,25 µM
same,"decrease in weight / decrease in neutrophile, acidocyte due to suppression of bone marrow",ICR mice; in Myrj 52,"neither decrease in weight nor decrease in neutrophile, acidocyte, etc. due to suppression of bone marrow was observed"
same,abnormality on observation for 3 months,ICR mice; observation for 3 months,no abnormality was observed
same,biosynthesis of GSL,GSL,has possibility of accelerating biosynthesis of GSL
same,Accelerating activity when enzyme activity of control is defined as 100%: GM3 synthase,GM3 synthase,197.4%
same,number of neurocytes having neurites in the explants versus group to which no medicine was administered,"[3]; 10 μM, cultured for 2 days, medium containing no serum",about one and half times
same,concentration range in which a pharmaceutical effect has been observed,[3]; culture of cerebral cortex pieces of rat fetuses,5 to 20 µM
same,number of synapse formation (frequency of intracellular Ca2+ fluctuation),[4]; FIG. 4,increase in the number of synapse formation depending on a dose
same,concentration at which a pharmaceutical effect has been observed,"[4]; culture for 8 hours, neurocytes of cerebral cortexes of rat fetuses",40 µM
same,neurite extension (microphotographs),"[5]; 5 μM, 20 μM and 40 μM, culture for 24 hours, FIG. 2",significant neurite-extending action
same,"lengths of the neurites, statistical processing","[5]; 1 to 40 μM, FIG. 3",accelerates neurite extension with a significant different of P<0.005
same,rats recovered to a normal level,[6],50%
same,Accelerating activity when enzyme activity of control is defined as 100%: Serine palmitoyltransferase,[7],148.2%
same,activity at 20 µM,[8],127%
same,concentration at which extension of neurites was the largest,explants,15 µM
same,minimal effective concentration,explants; read-out: concentration at which extension of neurites was observed,≥ 5 µM
